From PMC11870044, “Exploring the Antibacterial and Antiparasitic Activity of Phenylaminonaphthoquinones—Green Synthesis, Biological Evaluation and Computational Study” (International Journal of Molecular Sciences, 2024)
Values after ≈ are worked out from the molar mass of the structure shown. Where two headings read alike, the source gives them in different places.

What was measured:
[1] = Experimental log P, shake-flask method n-octanol/water; format: physicochemical; conditions: 25 ± 1 °C
Protocol: The mixture was then allowed to stand for 24 h at the same temperature for further phase separation. A stock solution with a concentration of 0.01 mol per liter in water, pre-saturated with n-octanol, was prepared for each compound. Duplicate test vessels containing a mixture of the stock solution and n-octanol (pre-saturated with water) were shaken on a vortex shaker for 5 min. Phase separation was achieved by centrifugation of the vessels for 3 min at 4000× g (25 ± 1 °C), and the concentration of the solute in the water phase (C water) was measured from their absorbance at 205 nm using a UV spectrophotometer. The partition coefficient was calculated using the following equation. Log Po/w = Log(C n-octanol/C water)
All the measurements were carried out at room temperature (25 ± 1 °C). In order to check the performance of the method, aniline was used as a reference substance.

[2] = tested on: Plasmodium falciparum FCR-3 (chloroquine-resistant); test: In vitro antiplasmodial screening, parasitemia by flow cytometry; format: cell-based; parameters: Plasmodium falciparum FCR-3 Growth Inhibition (%): concentration or dose not given beside the values; conditions: for Plasmodium falciparum FCR-3 Growth Inhibition (%): mean ± SD; for IC50: Plasmodium falciparum, read-out: Plasmodium falciparum FCR-3 IC50
Protocol: (§1) The antimalarial activity assay was performed using Plasmodium falciparum 3D7 (chloroquine-sensitive) and FCR-3 (chloroquine-resistant) reference strains, which were cultured in vitro following the method described by Trager et al. with some modifications.
(§2) The experiments were performed in 96-well culture plates, where the stock solutions of compounds 1–12 (1, 0.1, 0.01, and 0.001 µg/mL) were tested. A total of 100 µL of each product was distributed in triplicate on the culture plates, and 100 µL of a red blood cell suspension (4% hematocrit, final parasitemia of 1% ring stage) was added, resulting in a final volume of 200 µL. The test plates were incubated at 37 °C for 48 h, and parasitemia was determined by flow cytometry (BDFACScalibur). Erythrocytes were taken from each well culture plate, and 100 µL of ethidium bromide (10 µg/mL) was added and incubated for 30 min. A total of 100,000 cells per well culture plate were acquired and analyzed. The IC50 of the pure products was determined by a regression curve of the percentage inhibition of parasite activity as a function of the logarithmic dose. Chloroquine diphosphate was used as the reference drug.

[3] = tested on: Plasmodium falciparum 3D7 (chloroquine-sensitive); test: as above; format: cell-based; parameters: Plasmodium falciparum 3D7 Growth Inhibition (%): concentration or dose not given beside the values; conditions: for Plasmodium falciparum 3D7 Growth Inhibition (%): mean ± SD; for IC50: Plasmodium falciparum, read-out: Plasmodium falciparum 3D7 IC50
Protocol: as §1, §2

[4] = tested on: Escherichia coli (ATCC 25922); test: Minimum inhibitory concentration, broth dilution method; format: cell-based
Protocol: (§3) The microorganisms used were Staphylococcus aureus (ATCC 25923), Proteus mirabilis (ATCC 12453) Enterococcus faecalis (ATCC 29212), Escherichia coli (ATCC 25922), Salmonella typhimurium (ATCC 19585), and Klebsiella pneumoniae (ATCC 700603).
(§4) The antimicrobial activity of the phenylaminonaphthoquinones 1–12 was determined by the broth dilution method. The following concentrations were tested: 200, 100, 50, 25, and 12.5 μg/mL. After incubation, the microbial growth was examined. The results are expressed in minimum inhibitory concentration (MIC), the lowest concentration of phenylaminonaphthoquinones with no visible growth. The bactericidal/bacteriostatic activity was determined by sub-cultivation of the samples in normal culture media at appropriate temperatures and incubation times. The MIC of each compound was performed in triplicate. The compounds 1–12 were dissolved in DMSO. Cefazolin and cefotaxime were used as positive controls at the same compound concentrations.

[5] = tested on: Enterococcus faecalis (ATCC 29212); test: as above; format: cell-based
Protocol: as §3, §4

[6] = tested on: Klebsiella pneumoniae (ATCC 700603); test: as above; format: cell-based
Protocol: as §3, §4

[7] = tested on: Proteus mirabilis (ATCC 12453); test: as above; format: cell-based
Protocol: as §3, §4

[8] = tested on: Salmonella typhimurium (ATCC 19585); test: as above; format: cell-based; conditions: Salmonella enterica, read-out: MIC S. typhimurium G−
Protocol: as §3, §4

[9] = tested on: Staphylococcus aureus (ATCC 25923); test: as above; format: cell-based; conditions: for MIC: Staphylococcus aureus; for MIC S. aureus G+: broth dilution
Protocol: as §3, §4

[10] = FCR-3 chloroquine-resistant, 48 h
[11] = 3D7 chloroquine-sensitive, 48 h
[12] = ATCC25922, read-out: MIC E. coli G−
[13] = ATCC29212, read-out: MIC E. faecalis G+
[14] = ATCC700603, read-out: MIC K. pneumonia G−
[15] = ATCC12453, read-out: MIC P. mirabilis G+
[16] = ATCC25923, read-out: MIC S. aureus G+, broth dilution, triplicate
[17] = FCR3, FCR-3 chloroquine-resistant, 48 h
[18] = ATCC25922, broth dilution, triplicate, read-out: MIC E. coli G−
[19] = ATCC29212, broth dilution, triplicate, read-out: MIC E. faecalis G+
[20] = ATCC700603, broth dilution, triplicate, read-out: MIC K. pneumonia G−
[21] = ATCC12453, broth dilution, triplicate, read-out: MIC P. mirabilis G+
[22] = ATCC25923, broth dilution, triplicate, read-out: MIC S. aureus G+

SMILES	logP [1]	Plasmodium falciparum FCR-3 Growth Inhibition (%) [2, 10]	IC50 ([2]; FCR3, 48 h)	Plasmodium falciparum 3D7 Growth Inhibition (%) [3, 11]	IC50 ([3]; 3D7, 48 h)	MIC [4, 12]	MIC [5, 13]	MIC [6, 14]	MIC [7, 15]	MIC [8]	MIC [9, 16]	MIC S. aureus G+ ([9]; triplicate)	IC50 [2, 17]	IC50 [3, 11]	MIC [4, 18]	MIC [5, 19]	MIC [6, 20]	MIC [7, 21]	MIC ([8]; broth dilution, triplicate)	MIC [9, 22]
O=C1C=C(Nc2ccc(O)cc2)C(=O)c2ccccc21 [Compound 5]	1.17 ± 0.81	61.0 ± 2.0%	0.78 µg/mL (≈ 2.94 µM)	18.0 ± 1.0%	> 1 µg/mL	> 50 µg/mL	> 50 µg/mL	> 50 µg/mL	24.8 µg/mL (≈ 93.5 µM)	> 50 µg/mL	3.2 to 5.7 µg/mL (≈ 12.1 to 21.5 µM)	3.2 µg/mL (≈ 12.1 µM)								
O=C1C(Cl)=C(Nc2ccc(O)cc2)C(=O)c2ccccc21 [Compound 6]	1.22 ± 0.13	56.0 ± 3.0%		41.0 ± 2.0%									0.87 µg/mL (≈ 2.9 µM)	> 1 µg/mL	39.8 µg/mL (≈ 133 µM)	49.9 µg/mL (≈ 166 µM)	40 µg/mL (≈ 133 µM)	29.9 µg/mL (≈ 99.8 µM)	20 µg/mL (≈ 66.7 µM)	19.6 µg/mL (≈ 65.4 µM)
COc1ccc(NC2=CC(=O)c3ccccc3C2=O)cc1 [Compound 7]	1.39 ± 0.15	57.0 ± 1.0%	0.88 µg/mL (≈ 3.15 µM)	49.0 ± 2.0%	> 1 µg/mL	> 50 µg/mL	31.2 µg/mL (≈ 112 µM)	37.3 µg/mL (≈ 134 µM)	18.4 µg/mL (≈ 65.9 µM)	29.9 µg/mL (≈ 107 µM)	3.2 to 5.7 µg/mL (≈ 11.5 to 20.4 µM)	5.7 µg/mL (≈ 20.4 µM)								
COc1ccc(NC2=C(Cl)C(=O)c3ccccc3C2=O)cc1 [Compound 8]	1.81 ± 1.04	34.0 ± 2.0%		26.0 ± 2.0%									> 1 µg/mL	> 1 µg/mL	> 50 µg/mL	40.1 µg/mL (≈ 128 µM)	49.1 µg/mL (≈ 156 µM)	52.6 µg/mL (≈ 168 µM)	49.9 µg/mL (≈ 159 µM)	21.9 µg/mL (≈ 69.8 µM)
COc1ccc(OC)c(NC2=CC(=O)c3ccccc3C2=O)c1 [Compound 9]	1.6 ± 0.23	24.0 ± 2.0%		33.0 ± 1.0%									> 1 µg/mL	> 1 µg/mL	> 50 µg/mL	38.2 µg/mL (≈ 123 µM)	> 50 µg/mL	29.9 µg/mL (≈ 96.7 µM)	43.8 µg/mL (≈ 142 µM)	> 50 µg/mL
COc1ccc(OC)c(NC2=C(Cl)C(=O)c3ccccc3C2=O)c1 [Compound 10]	1.94 ± 0.56	21.0 ± 4.0%		20.0 ± 3.0%								4.7 µg/mL (≈ 13.7 µM)	> 1 µg/mL	> 1 µg/mL	23.5 µg/mL (≈ 68.4 µM)	70.8 µg/mL (≈ 206 µM)	> 50 µg/mL	> 50 µg/mL	31.7 µg/mL (≈ 92.2 µM)	3.2 to 5.7 µg/mL (≈ 9.31 to 16.6 µM)
CN(C1=CC(=O)c2ccccc2C1=O)c1ccccc1 [Compound 11]	2.31 ± 0.3	72.0 ± 2.0%		26.0 ± 8.0%								5.5 µg/mL (≈ 20.9 µM)	0.55 µg/mL (≈ 2.09 µM)	> 1 µg/mL	> 50 µg/mL	30.2 µg/mL (≈ 115 µM)	> 50 µg/mL	44 µg/mL (≈ 167 µM)	> 50 µg/mL	3.2 to 5.7 µg/mL (≈ 12.2 to 21.6 µM)
CN(C1=C(Cl)C(=O)c2ccccc2C1=O)c1ccccc1 [Compound 12]	2.33 ± 0.02	25.0 ± 5.0%		62.0 ± 5.0%									> 1 µg/mL	0.8 µg/mL (≈ 2.69 µM)	28.6 µg/mL (≈ 96.1 µM)	47.2 µg/mL (≈ 159 µM)	> 50 µg/mL	11.5 µg/mL (≈ 38.6 µM)	50 µg/mL (≈ 168 µM)	29 µg/mL (≈ 97.4 µM)
